This is an account of results in ChEMBL document CHEMBL4428029, “Notch Antagonists: Potential Modulators of Cancer and Inflammatory Diseases” (J Med Chem, 2016).

Residues, ends and D or L forms follow the SMILES beside them. *: point of attachment. Decanoyl = CCCCCCCCCC(=O)*; CH2Cl = ClC*

Experiment [1] deals with Gamma-secretase. The experiment in a line: Inhibition of gamma secretase mediated amyloid beta level reduction in HEK293 cells expressing APP after 72 hrs by chemiluminescence assay. The format is cell-based, Homo sapiens.
Experiment [2] addresses Gamma-secretase. In words: Inhibition of gamma secretase in human SupT1 cells assessed as reduction in amyloid beta 40 after 16 hrs by chemiluminescence assay. It counts as cell-based.
Experiment [3] addresses Gamma-secretase. The experiment in a line: Inhibition of gamma secretase mediated Notch signaling in human SupT1 cells after 16 hrs by chemiluminescence assay. The format is cell-based.
Experiment [4] concerns the target Gamma-secretase. The experiment in a line: Inhibition of gamma secretase (unknown origin) mediated Notch signaling. It counts as protein-complex assay, Homo sapiens.
For experiment [5], the target named is Disintegrin and metalloproteinase domain-containing protein 17 (Homo sapiens, UniProt P78536). In words: Inhibition of ADAM17 (unknown origin) assessed as blockage of TNF-alpha shedding.
Sequence of Disintegrin and metalloproteinase domain-containing protein 17 (P78536 whole entry, the tested form may be a part): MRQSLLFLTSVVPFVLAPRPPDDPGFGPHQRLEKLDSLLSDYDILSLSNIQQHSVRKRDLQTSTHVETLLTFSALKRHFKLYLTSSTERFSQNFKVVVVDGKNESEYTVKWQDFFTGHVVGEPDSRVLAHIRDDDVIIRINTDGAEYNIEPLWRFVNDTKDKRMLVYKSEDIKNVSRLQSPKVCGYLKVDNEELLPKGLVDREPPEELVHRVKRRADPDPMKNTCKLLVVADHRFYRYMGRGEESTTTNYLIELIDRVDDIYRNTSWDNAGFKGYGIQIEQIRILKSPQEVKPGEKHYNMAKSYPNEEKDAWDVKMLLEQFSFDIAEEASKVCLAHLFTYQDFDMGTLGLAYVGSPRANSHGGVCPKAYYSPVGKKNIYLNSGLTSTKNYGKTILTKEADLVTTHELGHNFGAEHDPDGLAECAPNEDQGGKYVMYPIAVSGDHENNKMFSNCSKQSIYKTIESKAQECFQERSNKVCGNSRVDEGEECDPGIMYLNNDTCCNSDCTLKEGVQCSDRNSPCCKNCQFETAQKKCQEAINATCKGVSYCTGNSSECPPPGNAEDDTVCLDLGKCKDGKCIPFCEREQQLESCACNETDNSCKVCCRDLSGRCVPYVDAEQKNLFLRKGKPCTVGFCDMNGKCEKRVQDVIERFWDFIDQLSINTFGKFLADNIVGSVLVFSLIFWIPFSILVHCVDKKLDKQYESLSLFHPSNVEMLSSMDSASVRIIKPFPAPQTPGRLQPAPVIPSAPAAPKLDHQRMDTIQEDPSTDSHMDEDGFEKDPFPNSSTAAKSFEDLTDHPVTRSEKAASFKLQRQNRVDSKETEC
The target of experiment [6] is Gamma-secretase. The experiment in a line: Inhibition of gamma secretase in human primary neuronal cells assessed as reduction in amyloid beta 40.
Experiment [7] concerns the target Gamma-secretase. In words: Inhibition of gamma secretase (unknown origin) mediated Notch signaling by cell based luciferase reporter gene assay. In general terms: Reporter assays use an easily measured gene product as a stand-in for the process of interest.
Experiment [8] deals with Gamma-secretase. The experiment in a line: Inhibition of gamma secretase mediated Notch delta E activation in human HeLa cells expressing EGFP after 16 hrs by immunofluorescence analysis. The format is cell-based.
The target of experiment [9] is Gamma-secretase. The experiment in a line: Inhibition of gamma secretase (unknown origin) mediated Notch activation. It counts as protein-complex assay, Homo sapiens.
For experiment [10], the target named is Gamma-secretase. The experiment in a line: Modulation of gamma secretase (unknown origin) assessed as reduction in amyloid beta levels. It counts as protein-complex assay, Homo sapiens.
The target in experiment [11] is Gamma-secretase. In words: Inhibition of gamma secretase (unknown origin). The format is protein-complex assay, Homo sapiens.
Experiment [12] concerns the target Gamma-secretase. In words: Inhibition of gamma secretase (unknown origin) assessed as reduction in amyloid beta levels by HTRF assay. The format is protein-complex assay, Homo sapiens. On the technique in general: TR-FRET usually uses a lanthanide donor and a delayed reading to cut background.
The target in experiment [13] is Gamma-secretase. The experiment in a line: Inhibition of full-length human gamma secretase expressed in SH-SY5Y spbetaA4CTF cells assessed as reduction in amyloid beta levels after 90 mins by HTRF assay. The format is cell-based.
Experiment [14] deals with Gamma-secretase. The experiment in a line: Inhibition of gamma secretase in HEK293 cells expressing APP695 assessed as reduction in amyloid beta (1 to 40 residues) by ELISA. It counts as cell-based, Homo sapiens. For orientation: In an ELISA, binding on a coated surface is turned into a signal by an enzyme label.
Experiment [15] deals with Gamma-secretase. The experiment in a line: Inhibition of gamma secretase mediated Notch1 signaling in HEK293 cells expressing truncated human Notch1 by luciferase reporter gene assay. The format is cell-based.
A further experiment has as its system A549. The experiment in a line: Antitumor activity against human A549 cells xenografted in nude mouse assessed as tumor growth inhibition at 3 to 60 mg/kg qd or bid administered via oral gavage for 7 to 21 days relative to vehicle treated control. It counts as functional.
Experiment [16] addresses T1, Neuroendocrine convertase 2 (Homo sapiens, UniProt P16519).
T1 sequence (P16519 whole entry): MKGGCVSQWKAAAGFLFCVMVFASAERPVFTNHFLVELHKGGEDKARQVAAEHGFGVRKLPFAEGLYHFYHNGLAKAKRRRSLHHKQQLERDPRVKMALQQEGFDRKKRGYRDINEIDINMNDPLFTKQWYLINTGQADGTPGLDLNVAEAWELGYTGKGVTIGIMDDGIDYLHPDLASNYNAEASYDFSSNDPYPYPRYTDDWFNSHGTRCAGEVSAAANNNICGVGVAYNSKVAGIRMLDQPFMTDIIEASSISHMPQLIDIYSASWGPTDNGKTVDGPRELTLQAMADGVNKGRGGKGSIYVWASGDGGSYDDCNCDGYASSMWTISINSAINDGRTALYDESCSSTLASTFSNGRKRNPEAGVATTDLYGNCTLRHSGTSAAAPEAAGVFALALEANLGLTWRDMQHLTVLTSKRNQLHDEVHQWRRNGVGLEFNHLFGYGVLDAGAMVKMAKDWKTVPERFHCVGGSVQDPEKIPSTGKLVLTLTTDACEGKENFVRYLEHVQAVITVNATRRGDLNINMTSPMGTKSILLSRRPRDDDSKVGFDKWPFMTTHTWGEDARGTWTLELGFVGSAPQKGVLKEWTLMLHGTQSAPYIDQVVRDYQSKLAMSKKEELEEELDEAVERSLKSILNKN
In words: Inhibition of recombinant C-terminal truncated human SPC2 expressed in drosophila Schneider 2 cells after 1 hr by spectrofluorometry. The format is cell-based.

For experiment [17], the target named is T2, Neuroendocrine convertase 1 (Homo sapiens, UniProt P29120).
T2 sequence (P29120 whole entry): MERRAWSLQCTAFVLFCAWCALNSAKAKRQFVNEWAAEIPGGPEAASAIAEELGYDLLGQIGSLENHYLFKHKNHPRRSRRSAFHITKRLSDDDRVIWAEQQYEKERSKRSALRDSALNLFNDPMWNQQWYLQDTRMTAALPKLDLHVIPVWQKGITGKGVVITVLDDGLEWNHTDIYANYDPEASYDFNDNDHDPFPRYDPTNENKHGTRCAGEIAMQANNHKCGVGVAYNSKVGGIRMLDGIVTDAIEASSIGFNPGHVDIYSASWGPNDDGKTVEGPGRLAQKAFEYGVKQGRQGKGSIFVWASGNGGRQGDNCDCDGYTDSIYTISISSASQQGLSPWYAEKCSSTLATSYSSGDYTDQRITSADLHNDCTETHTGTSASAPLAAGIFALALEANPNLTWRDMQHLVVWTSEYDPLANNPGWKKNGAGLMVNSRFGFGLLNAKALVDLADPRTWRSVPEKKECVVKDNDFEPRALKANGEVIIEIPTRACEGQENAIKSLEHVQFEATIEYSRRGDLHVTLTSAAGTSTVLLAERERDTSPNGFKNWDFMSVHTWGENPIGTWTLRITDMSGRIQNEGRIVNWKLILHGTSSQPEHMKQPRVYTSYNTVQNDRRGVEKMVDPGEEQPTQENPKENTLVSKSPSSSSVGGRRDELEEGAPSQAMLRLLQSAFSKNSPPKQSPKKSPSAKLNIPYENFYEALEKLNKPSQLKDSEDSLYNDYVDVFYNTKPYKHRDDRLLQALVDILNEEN
The experiment in a line: Inhibition of recombinant C-terminal truncated human SPC3 expressed in drosophila Schneider 2 cells after 1 hr by spectrofluorometry. The format is cell-based.

Experiment [18] deals with Gamma-secretase. In words: Inhibition of gamma secretase in human MCF7 cells assessed as reduction in amyloid beta 40 after 3 days by Western blot analysis.
The target in experiment [19] is Gamma-secretase. In words: Inhibition of gamma secretase (unknown origin) mediated Notch M1726V mutant activation in CHO K1 cells after 48 hrs by chemiluminescence assay.
In experiment [20] the target is Gamma-secretase. The experiment in a line: Inhibition of gamma secretase (unknown origin) mediated APP cleavage in CHO cells expressing APP Swedish KM/NL mutant assessed as reduction in amyloid beta 40 after 24 hrs by sandwich ELISA.

A word on the IC50: it is the concentration at which inhibition is half-maximal. For the compound `COc1oc(=O)c2cc(N)ccc2c1Cl`, the IC50 against Gamma-secretase [1] worked out at 30000 nM.
For `C[C@H](NC(=O)Cc1cc(F)cc(F)c1)C(=O)N[C@@H]1C(=O)N(C)c2ccccc2-c2ccccc21`, the results for the IC50 on Gamma-secretase [2] and against Gamma-secretase [3] were 2.6 nM and 2.9 nM, respectively.
As to `C[C@H](NC(=O)CCC(F)(F)F)C(=O)N[C@H]1C(=O)N(CCO)c2ncccc2-c2ccccc21`, at Gamma-secretase [4], the IC50 came out at 0.41 nM.
`CC(C)CC(CC(=O)NO)C(=O)N[C@@H](Cc1ccc2ccccc2c1)C(=O)N[C@@H](C)C(=O)NCCN` (some centres not stated): in experiment [5], the IC50 stood at 8100 nM.
Regarding `C[C@H](NC(=O)Cc1cc(F)cc(F)c1)C(=O)N[C@H](C(=O)OC(C)(C)C)c1ccccc1`, the IC50 was 115 to 200 nM on Gamma-secretase [6] and 500 nM on Gamma-secretase [7].
Take `CC1=C(C(=O)OC2CCCCC2)C(c2ccc([N+](=O)[O-])cc2)C2=C(CC(C)(C)CC2=O)N1` (configuration not stated): the IC50 at Gamma-secretase [8] was 2300 nM.
`CC(C)[C@H](O)C(=O)N[C@@H](C)C(=O)N[C@@H]1C(=O)N(C)c2ccccc2-c2ccccc21` displayed a half-inhibitory concentration (IC50) against Gamma-secretase [9] of 0.27 nM.
Regarding `C[C@@H](C(=O)O)c1ccc(-c2ccccc2)c(F)c1` [TARENFLURBIL], the half-maximal inhibitory concentration (IC50) at Gamma-secretase [10] was 100000 nM.
On to `CC(C)[C@H](O)C(=O)N[C@@H](C)C(=O)N[C@@H]1C(=O)N(C)CCc2ccccc21`, for which the values for the IC50 against Gamma-secretase [11] and against Gamma-secretase [4] were 10.9 to 12.1 nM and 14.1 nM, respectively.
Regarding `CC(C)C[C@H](NC(=O)[C@H](Cc1ccccc1)C[C@@H](O)[C@H](Cc1ccccc1)NC(=O)OC(C)(C)C)C(=O)N[C@@H](Cc1ccccc1)C(N)=O`, the IC50 was 17 nM at Gamma-secretase [12] and 115 to 200 nM at Gamma-secretase [13].
Broadly, the EC50 is the midpoint of the concentration-response curve. `CC(C)(C(=O)NCC(F)(F)C(F)(F)F)C(=O)N[C@@H]1C(=O)Nc2ccccc2-c2ccccc21` [RG-4733]: the values for the EC50 on Gamma-secretase [14] and at Gamma-secretase [15] were 14 nM and 5 nM, respectively. In the experiment with A549, the TGI was 66 - 91%.
Usually Ki stands for a measure of affinity in units of concentration, obtained from inhibition or displacement. As to `CCCCCCCCCC(=O)N[C@@H](CCCNC(=N)N)C(=O)N[C@H](C(=O)N[C@@H](CCCCN)C(=O)N[C@@H](CCCNC(=N)N)C(=O)CCl)C(C)C` (Decanoyl-RVKR-CH2Cl), the Ki amounted to 0.36 nM in experiment [16] and 2 nM in experiment [17].
On to `O=C(O)CC[C@H]1CC[C@@](c2cc(F)ccc2F)(S(=O)(=O)c2ccc(Cl)cc2)CC1` [MK-0752], for which, on Gamma-secretase [18], the IC50 came out at 5 nM.
With `O=S(=O)(N[C@H](CO)C(C(F)(F)F)C(F)(F)F)c1ccc(Cl)s1` [BEGACESTAT], the results for the IC50 on Gamma-secretase [19] and on Gamma-secretase [20] were 208 nM and 14.8 nM, respectively.
